{"source": "patent US9023803B2", "about": "“Cancer therapy based on tumor associated antigens derived from cyclin D1” (Immatics Biotechnologies GmbH, priority 2010, dated 2015)", "key": {"regulatory T cells": {"test_system": "regulatory T cells", "details": "low-dose cyclophosphamide 300 mg/m^2 single infusion before vaccination", "source_text": "Absolute counts are shown in (A), percent change from baseline is shown in (B).\n(§1) Some patients received a prior TKI therapy with sunitinib or sorafenib, others a prior cytokine therapy with interferon or interleukin."}, "patients": {"test_system": "patients", "test": "Clinical study of vaccine IMA901 with or without prior cyclophosphamide", "type": "in vivo, human", "source_text": "as §1\nBoth patient groups were followed up for progression-free survival (PFS) and overall survival (OS)."}, "HLA-A*02": {"test_system": "HLA-A*02", "test": "HLA-restriction: binding to HLA-A*02", "design": "species or system human"}, "HLA-A*68": {"test_system": "HLA-A*68", "test": "HLA-restriction: binding to HLA-A*68", "design": "species or system human"}, "HLA-A*26": {"test_system": "HLA-A*26", "test": "HLA-restriction: binding to HLA-A*26", "design": "species or system human"}, "CTL": {"test_system": "CTL", "details": "HLA-A2+ healthy donors, colon cancer and mantle cell lymphoma patients; CD40-activated B cells as APCs; cited from earlier work"}, "cancer patients": {"test_system": "cancer patients", "test": "Prevaccination T cell responses in cancer patients", "type": "in vivo, human", "details": "certain cancer patients", "source_text": "A further aspect of the invention then relates to the use of the peptide or combination according to the invention as a diagnostic tool in the diagnosis of cancer. Basically, the presence of the peptides or a combination thereof in the patient indicates cancer. […] Again, for the diagnosis, the peptides can be labeled. Furthermore, antibodies against the peptides (or combinations) can also be used. The diagnosis can be performed in vivo or in vitro."}, "HLA A*0201": {"target": "HLA A*0201 (Homo sapiens, UniProt P04439, D140Y/D185E/D98H/E176V/E277Q/G131W/G231S/I119V/I121R/I166T/I218V/L300P/L318F/N151K/N90K/P208A/P217A/Q86G/Q94H/R138H/R169H/T345S)", "test": "ELISA-based HLA binding method (Sylvester-Hvid et al., 2002)"}, "[1]": {"test_system": "HLA-A*02 positive tumor cells endogenously expressing Cyclin D1", "details": "allo-restricted T cells of HLA-A2-negative donors; cited from earlier work"}, "HLA class-II": {"test_system": "HLA class-II", "test": "HLA-restriction: binding to HLA class-II", "design": "species or system human"}}}
{"compound": "O=P1(N(CCCl)CCCl)NCCCO1", "note": "(stereo not drawn) [cyclophosphamide, reference compound]", "values": [{"measurement": "number of regulatory T cells", "setting": "regulatory T cells", "result": "reduced"}, {"measurement": "outcome of the treatment using the vaccine after prior low-dose cyclophosphamide", "setting": "patients; single infusion 300 mg/m^2 before IMA901", "result": "significantly improved"}]}
{"compound": "ALLESSLRQA (listed as Homo sapiens) [CCN-007, cyclin D1-derived peptide, aa 253-262]", "values": [{"measurement": "binding to HLA-A*02", "setting": "HLA-A*02", "result": "moderate binder"}]}
{"compound": "ETIPLTAEKL [CCN-006]", "values": [{"measurement": "binding to HLA-A*68", "setting": "HLA-A*68", "result": "seems to be a HLA-A*68 binder"}]}
{"compound": "EVFPLAMNY (listed as Homo sapiens) [CCN-004, cyclin D1-derived peptide, aa 76-84]", "values": [{"measurement": "binding to HLA-A*02", "setting": "HLA-A*02", "result": "practically no binding"}, {"measurement": "binding to HLA-A*26", "setting": "HLA-A*26", "result": "high binding"}]}
{"compound": "LLGATCMFV (listed as Homo sapiens) [CCN-001, cyclin D1-derived peptide, aa 101-109]", "values": [{"measurement": "generation of CTL specific for the epitope", "setting": "CTL", "result": "could be generated"}, {"measurement": "prevaccination responses", "setting": "cancer patients", "result": "found"}, {"measurement": "binding to HLA A*0201", "setting": "HLA A*0201", "result": "Good binding"}, {"measurement": "survival of patients responding against CCN-001 versus non-CCN-001-responding patients", "setting": "patients; all vaccinated patients", "result": "significant longer survival"}, {"measurement": "favorable effect of T cell response against CCN-001 on survival", "setting": "patients; patient group pretreated with cyclophosphamide", "result": "even more evident"}, {"measurement": "lysis of Cyclin D1 expressing HLA-A*02 positive tumor cells by T cell clones recognizing the peptide", "setting": "[1]", "result": "could lyze"}]}
{"compound": "NPPSMVAAGSVVAAV (listed as Homo sapiens) [CCN-003, cyclin D1-derived peptide, aa 198-212]", "values": [{"measurement": "HLA restriction", "setting": "HLA class-II", "result": "DRB1*0401 restricted"}, {"measurement": "binding to HLA class-II", "setting": "HLA class-II", "result": "binds"}]}
{"compound": "YLSGANLNL (listed as Homo sapiens) [CEA-004]", "values": [{"measurement": "prevaccination responses", "setting": "cancer patients", "result": "found"}]}
